Reference: article PMC10257182, “Discovery of senolytics using machine learning” (Nature Communications, 2023)
Values joined by “and” are separate entries in the source; they are usually repeats but may differ in a detail not shown here. Equal values may be shown once.

How the values were obtained:
Type in all cases: cell-based, human
[1] = tested on: IL1α, IL1β and IL8 mRNA in IMR90 cells at passage 27; experiment: IL1α, IL1β and IL8 mRNA expression by RT-qPCR, replicative senescence; settings: Replicative senescence cells treated with Oleandrin; relative to Replicative senescence DMSO = 1; individual replicates (Sup Fig 9M)
Description: (§1) Total RNA was isolated using RNAeasy kit (Quiagen). cDNA was generated with reverse transcriptase iScript (Bio-Rad). RT-qPCR was performed using SYBR Select Master Mix (Applied Biosystems) in OneStepPlus detection system (Applied Biosystems). Oligos for amplification were: NOXA Fw-[…] and Rv-[…]; b-ACTIN Fw-[…] and Rv-[…]; IL1a Fw-[…] and Rv- […]; IL1b Fw-[…] and Rv- […]; IL8 Fw-[…] and Rv-[…]; p16 Fw-CGGTCGGAGGCCGATCCAG and Rv- […]; p21Fw-[…] and Rv- […].

[2] = tested on: IL1α, IL1β and IL8 mRNA in IMR90 ER:RAS cells; experiment: IL1α, IL1β and IL8 mRNA expression by RT-qPCR, OIS
Description: as §1

[3] = tested on: p16 and p21 mRNA in IMR90 cells at passage 27; experiment: p16 and p21 mRNA expression by RT-qPCR, replicative senescence
Description: as §1

[4] = tested on: control A549 cells; experiment: Cell survival assay using crystal violet staining, TIS, control cells; settings: fraction of Control DMSO = 1, n 15
[5] = tested on: p16 and p21 mRNA in IMR90 ER:RAS cells; experiment: p16 and p21 mRNA expression by RT-qPCR, OIS
Description: as §1

[6] = ER:RAS cells treated with Oleandrin, relative to ER:RAS DMSO = 1, individual replicates (Sup Fig 9L)
[7] = Replicative senescence, Replicative senescence DMSO = 1, single replicates (SUP FIG 9K)
[8] = ER:RAS cells, ER:RAS DMSO = 1, single replicates (SUP FIG 9J)

Structure (SMILES): CO[C@H]1C[C@H](O[C@H]2CC[C@@]3(C)[C@H](CC[C@@H]4[C@@H]3CC[C@]3(C)[C@@H](C5=CC(=O)OC5)[C@@H](OC(C)=O)C[C@]43O)C2)O[C@@H](C)[C@@H]1O [Oleandrin, oleandrin]
- Il1a mRNA expression [1]: 0.137 and 0.086
- Il1b mRNA expression [1]: 0.212 and 0.341 and 0.688 and 0.490
- Il8 mRNA expression [1]: 0.310 and 0.732 and 0.719
- Il1a mRNA expression [2, 6]: 0.753 and 0.593 and 0.059 and 0.346
- Il1b mRNA expression [2, 6]: 0.833 and 0.618 and 0.476 and 0.758 and 0.763 and 0.829
- Il8 mRNA expression [2, 6]: 0.635 and 0.462 and 0.310 and 0.125 and 0.299
- expression of proinflammatory cytokines IL1α, IL1β and IL8 mRNA in surviving cells, in words ([2]; OIS, 10 nM, three days): reduced expression
- p16 mRNA expression [3, 7]: 0.71 and 0.46 and 0.42
- p21 mRNA expression [3, 7]: 0.65 and 0.25 and 0.44
- mRNA expression of the senescence markers p16 and p21 in surviving cells, in words ([3]; replicative senescence, 10 nM, three days): reduced
- Cell survival, mean (Test details, Mean 2) [4]: 1.13
- p16 mRNA expression [5, 8]: 0.68 and 0.69 and 0.24 and 0.46
- p21 mRNA expression [5, 8]: 0.34 and 0.51 and 0.72 and 0.48
- mRNA expression of the senescence markers p16 and p21 in surviving cells, in words ([5]; OIS, 10 nM, three days): reduced
